Measurements published in US12661308B2, “Antimicrobial AZO compounds and uses thereof” (The Regents Of The University Of Colorado, A Body Corporate, priority 2019, dated 2026).
Entries after “also recorded” stand apart in the source; their conditions may differ.

What was measured:
S. mutans [1] = experiment: Kill curve kinetic study of S. mutans in media surrounding the coated substrate; type: cell-based, Streptococcus mutans
Procedure: FIG. 13 are images from a complete plating of media of S. mutans in contact with OH-AAZO-coated substrates at different timepoints following seeding. The media sampled shown in FIG. 13 (A) at t=0 h was serial diluted as described in Example 4 (below) and gave a total CFU count of (8.0±3.2)×10^6 CFUs. The media sampled shown in FIG. 13 (B) at t=4 h was streaked across the entire plate and gave a total CFU count of 8 CFUs. The media sampled shown in FIG. 13 (C) at t=24 h was streaked across the entire plate and gave a total CFU count of 0 CFUs.
We sampled aliquots of the media containing S. mutans surrounding the OH-AAZO substrate at different time points (FIG. 4). At t=0, S. mutans colonies (1×10^6 CFUs) were introduced to the OH-AAZO coated substrate. At t=4 h, the CFU count in the well was reduced 2-log, and by t=6 h, the CFU count had reduced to zero.

S. mutans [2] = experiment: Detachment study of S. mutans from OH-AAZO coated substrate with and without light (Example 2); type: cell-based, Streptococcus mutans; conditions: 50 mg/mL coating
Procedure: In this Example, detachment of S. mutans from a polymeric substrate coated with a 50 mg/mL OH-AAZO solution was evaluated. Four conditions were evaluated. The first is where the polymeric substrate is coated with OH-AAZO and exposed to light to produce a photofluidization effect due to the rapid trans cis isomerization (Azo, light or AL). The second is where the polymeric substrate is coated with OH-AAZO and not exposed to light (Azo, no light or ANL). The third is where the polymeric substrate is not coated with OH-AAZO and is exposed to light (no Azo, light or NAL). The fourth is where the polymeric substrate is not coated with OH-AAZO and is not exposed to light (no Azo, no light or NANL).

[3] = tested on: S. pneumoniae (Pneumonococcus, Pn); experiment: Growth study, S. pneumoniae; type: cell-based, Streptococcus pneumoniae; conditions: 50 mg/ML coated substrates, BHI media, 24 h time-period
Procedure: A single bacterial colony was inoculated in 4 mL BHI media. The colony was grown to mid-log phase (to approximately OD600=0.4), statically at 37° C., which for was approximately 4 hours for the S. agalactiae GBS, approximately 11 hours for the S. pyogenes GAS, and approximately 6 hours for the S. pneumaoniae. They were diluted 1:5 in 80% glycerol (in water) solution (4 parts culture, 1 part glycerol, for a final glycerol concentration of 16%). In a 96-well plate, each was diluted to 1:100 resulting in a final concentration of 1×10^6 CFU/mL and grown at 37° C. with 5% CO2.

[4] = tested on: S. oralis (ATCC 9811) biofilm; experiment: Biofilm growth study, S. oralis; type: cell-based, Streptococcus oralis; conditions: 50 mg/mL coated substrate, 24 h time-period
Procedure: S. oralis and A. actinomycetemcomitans were streaked on a BHI agar plate and incubated at 37° C. and 5% CO2 for 48 h. An isolated colony was inoculated in 5 mL BHI media for 12 h under the same incubation conditions, followed by a 1:10 dilution in BHI media in a 96-well plate containing the substrates of interest. […]
(§1) Following biofilm growth in the 96-well plate, the substrates were aseptically removed from the 96-well plate and placed in a vial containing 5 mL of 1× PBS solution. The vials were sonicated in a water bath for 10 min at 45° C., and the wells that previously contained the substrates were briefly sonicated using a probe sonicator (3 W RMS output) for 10 s per well. 200 μL aliquots of the sonicated PBS solution were placed in a 96-well plate and diluted 1:10 in each subsequent row. 20 μL aliquots of the sonicated media wells were placed in a 96-well plate containing 180 μL of PBS solution and diluted 1:10 in each subsequent row. Each column was then plated at a volume of 10 μL on a BHI agar plate in triplicate. The plates were then incubated at 37° C. and 5% CO2 for 48 h. The CFUs on each plate were counted in order to quantify the amount of biofilm remaining on the surface of the substrate and the bacteria remaining in the media after the removal of the substrate using the following equations: […]

S. mutans [5] = experiment: DIBAC4(3) membrane potential assay; type: cell-based, Streptococcus mutans
Procedure: Membrane potential assays were performed as described by Wu et al. with minor modifications. Wu et al., Antibacterial activity and membrane-disruptive mechanism of 3-p-trans-coumaroyl-2-hydroxyquinic acid, a novel phenolic compound from pine needles of Cedrus deodara, against Staphylococcus aureus, Molecules (2016), 21(8):1-12. S. mutans bacteria grown for 24 h in BHI broth were inoculated in a 96-well plate as described above. The plate was incubated for 8 h at 37° C. and 5% CO2. 2 μL of 0.1 mg/mL DIBAC4 (3) solution in DMSO was added to each well. The plate was then incubated in the dark overnight. The fluorescence reading was taken in a plate reader at λexcitation=492 nm and λemission=515 nm. Fluorescence values in bacteria-containing wells were normalized against fluorescence values containing the same substrate but no bacteria.

S. mutans biofilm = experiment: Live-dead stain microscopy of S. mutans biofilms (Example 4); type: cell-based, Streptococcus mutans
Procedure: Microscope images were obtained using a Zeiss digital microscope at 6300× magnification using the FITC and CY3 channels. Following biofilm growth, the substrates were placed in a solution of live-dead stains (Invitrogen BacLight™) containing 1.5 μL Component A (SYTO® 9, green fluorescent nucleic acid stain) and 1.5 μL Component B (propidium iodide, red fluorescent nucleic acid stain) in 200 μL of sterile water. The substrates were soaked for 3 min, then gently washed in sterile water for 10 s, dried, and fixed to a glass slide prior to imaging.

E. coli biofilm = experiment: Biofilm growth study, E. coli; type: cell-based, Escherichia coli; conditions: 50 mg/mL coated substrate, 24 h time-period
Procedure: E. coli biofilms were grown from a 20 h BHI inoculated with an E. coli colony. The liquid culture was diluted 10^3 to a stock solution in BHI, then diluted 1:10 in BHI media in a 96-well plate. The plate was incubated in the dark at 37° C. for 24 h.
as §1

C=CC(=O)Oc1ccccc1/N=N/c1ccccc1O [OH-AAZO, phenolic acrylated azobenzene]
total CFU count, complete plating of media (S. mutans [1]; t=0 h, serial diluted): (8.0±3.2)×10^6 CFUs
reduction of CFU count in the well (S. mutans [1]; t=4 h, from 1×10^6 CFUs at t=0): 2 log
total CFU count, complete plating of media (S. mutans [1]; t=4 h, streaked across the entire plate): 8 CFUs
S. mutans CFU count in the media (S. mutans [1]; t=6 h): zero and complete S. mutans death and absence of S. mutans
S. mutans growth (S. mutans [2]; exposed to light (AL), over 48 hr): no growth
S. mutans growth (S. mutans [2]; no light (ANL), first 33 hr): minimal growth
S. mutans growth (S. mutans [2]; no light (ANL), t=48 hr): some minimal biofilm growth
S. pneumoniae growth on coated substrate and in media [3]: did not grow on the coated substrate nor in the media
S. oralis growth on coated substrate and in media [4]: did not grow on the coated substrate nor in the media; also recorded: antibacterial effect was only observed
DIBAC4(3) fluorescence of S. mutans (S. mutans [5]; 5 mg/mL coated substrate, relative to uncoated control): slight reduction
DIBAC4(3) fluorescence of S. mutans (S. mutans [5]; 25 mg/mL coated substrate): drop in fluorescence to zero
DIBAC4(3) fluorescence of S. mutans (S. mutans [5]; 50 mg/mL coated substrate): drop in fluorescence to zero; also recorded: dropped to zero
live and dead bacteria on substrate, live-dead stain (S. mutans biofilm; 1.5% OH-AAZO bulk substrate, 24 h): high amounts of dead bacteria (lighter) and little to no live bacteria; also recorded: did not grow
live and dead bacteria on substrate, live-dead stain (S. mutans biofilm; 2% OH-AAZO bulk substrate, 24 h): high amounts of dead bacteria (lighter) and little to no live bacteria; also recorded: did not grow
live and dead bacteria on substrate, live-dead stain (S. mutans biofilm; coated substrate, 24 h biofilm growth, compared to uncoated control): high amounts of dead bacteria (lighter) and little to no live bacteria
antibacterial effect on E. coli biofilm (CFUs) (E. coli biofilm): no discernable antibacterial effect or reduction in CFUs
